Series [1] relates to SW1222 tumour-bearing mice. In words: Ex vivo biodistribution in SW1222 tumour-bearing mice. Conditions: for Uptake in tumour: SW1222 xenograft, 60 min after i.v. injection.
Series [2] can be described thus: Plasma metabolite analysis by HPLC. The settings on record: 15 min post-injection, i.v. The series is classed as in vivo, mice. An excerpt:
However, the overall uptake in the tumour was too low to allow in vivo imaging of tumour apoptosis with SPECT. […] It is unclear if this reflects drug induced apoptosis, or if the observed changes were due to swelling or increased local blood flow. […] A single polar radioactive metabolite was detected consistent with deiodination in vivo to give [^125I]iodide. However, it should be noted that a similar polar metabolite has been observed for the non-iodinated analog [^18F]ICM-11, and the low uptake in the thyroid (2.4 ± 1%ID/g at 60 min post-injection) and high liver uptake point to another metabolic route. In any case, the rapid metabolism makes FITI poorly suited as a tracer for in vivo imaging of apoptosis.
After an incubation period at 37 °C
linear correlation software (OriginPro 2015).
3.2. Plasma metabolite analysis
The supernatant was decanted and mixed with
3.3. Biodistribution studies in mice
week prior to initiation of studies.
College London Animal Ethics Committee.4
were rapidly excised and weighed.

For series [3], the target named is T1, Recombinant human caspase-3 (Homo sapiens, UniProt P42574).
T1 sequence (P42574 29-175 limits assumed): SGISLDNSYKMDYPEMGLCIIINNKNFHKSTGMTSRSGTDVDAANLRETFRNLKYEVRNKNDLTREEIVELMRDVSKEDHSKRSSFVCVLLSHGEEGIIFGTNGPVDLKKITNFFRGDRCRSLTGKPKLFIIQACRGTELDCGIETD
T1 sequence (P42574 176-277 limits assumed): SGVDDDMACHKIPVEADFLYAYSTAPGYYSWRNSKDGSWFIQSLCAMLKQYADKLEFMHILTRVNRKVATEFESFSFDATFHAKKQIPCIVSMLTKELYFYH
Description: Caspase enzyme inhibition assay (fluorogenic Ac-DEVD-AMC), caspase-3.

The nature of series [4]: Log D measurement (n-octanol/PBS, gamma counting). The class given is physicochemical. Conditions: measured with 125I-labelled compound.
Series [5] addresses Recombinant human caspase-8 (Homo sapiens, UniProt Q14790). Description: Caspase enzyme inhibition assay (fluorogenic Ac-IETD-AMC), caspase-8.
The mark [6] stands for this setting: control animals, 60 min after i.v. tail vein injection.

Recombinant human caspase-8, sequence (Q14790 217-374 limits assumed): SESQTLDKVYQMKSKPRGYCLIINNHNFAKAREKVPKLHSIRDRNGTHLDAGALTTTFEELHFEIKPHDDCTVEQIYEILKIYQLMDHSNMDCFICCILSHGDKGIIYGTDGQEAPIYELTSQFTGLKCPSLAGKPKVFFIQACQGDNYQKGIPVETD
Recombinant human caspase-8, sequence (Q14790 385-479 limits assumed): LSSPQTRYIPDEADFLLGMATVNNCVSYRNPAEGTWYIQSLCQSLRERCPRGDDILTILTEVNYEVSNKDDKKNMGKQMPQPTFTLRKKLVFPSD

As for `O=C1C(=O)N(Cc2nnn(CCF)c2[125I])c2ccc(S(=O)(=O)N3CCCC3COc3ccc(F)cc3F)cc21` (stereo not shown) [[^125I]FITI], in series [1] (60 min post-injection), the Uptake in thyroid is listed as 2.4 ± 1 %ID/g. In series [1] (setting [6]), the Uptake in liver is given as 17 ± 6 %ID/g, the “Uptake in small intestine” value stood at 48 ± 13 %ID/g and the Uptake in stomach was found to be 28 ± 25 %ID/g. This molecule also showed an Uptake in tumour in series [1] (control animals) of 0.7 ± 0.4 %ID/g. The Uptake in tumour in series [1] (etoposide-treated mice (50 mg/kg, 24 hrs, i.p.), p < 0.001 vs control) is recorded as 1.5 ± 0.2 %ID/g. In addition, the “Intact parent tracer in mouse plasma” value in series [2] is given as “less than 50%”.

As a reminder, the Ki is the equilibrium dissociation constant of an inhibitor or competing ligand from its target. As a reminder, the logD is lipophilicity at a set pH, counting ionised and neutral species. As for `O=C1C(=O)N(Cc2nnn(CCF)c2I)c2ccccc21` [compound 4], the Ki in series [3] was over 50 µM. Further, in series [4], the logD was 1.14 ± 0.06.

A word on the IC50: it is the midpoint of a concentration-inhibition curve. Consider `O=C1C(=O)N(Cc2nnn(CCF)c2I)c2ccc(S(=O)(=O)N3CCC[C@H]3COc3ccc(F)cc3F)cc21` [FITI, (S)-5-((2-((2,4-difluorophenoxy)methyl)pyrrolidin-1-yl)sulfonyl)-1-((1-(2-Fluoroethyl)-5-(Iodo)-1H-1,2,3-Triazol-4-yl)methyl)Indoline-2,3-dione], for which, in series [1] (SW1222 xenograft model, etoposide vs control), the “Increase in tumour uptake after etoposide-induced cell death” value stood at 2 fold. Further, the Ki in series [3] was 0.0061 ± 0.0009 µM. The IC50 in series [5] was over 50 µM. This molecule registered a logD in series [4] of 1.6 ± 0.1.

For the origin of these results see PMC6917698, “One-Pot Radiosynthesis and Biological Evaluation of a Caspase-3 Selective 5-[^123,125I]iodo-1,2,3-triazole derived Isatin SPECT Tracer” (Scientific Reports, 2019).
